Test results as given in article PMC8018653, “Gender-based differences in brain and plasma pharmacokinetics of letrozole in sprague-dawley rats: Application of physiologically-based pharmacokinetic modeling to gain quantitative insights” (PLoS ONE, 2021).
“And” between values parts separate entries of the source, which are not always exact repeats. Equal entries are not always repeated. Marks after values point to notes of the source that are not given here.

Key:
[1] = cited from earlier work
[2] = Whole body PBPK model with multi-compartment brain model (Simcyp Animal Simulator V17); design: species or system rat
Description: Simcyp Animal Simulator V17 (Certara Inc.) was employed for developing a bottom-up whole body PBPK model incorporating the specified multi-compartment brain model. Based on its anatomy and physiology, the whole brain is described by three compartments, viz. brain blood, brain mass and cerebrospinal fluid (CSF) as illustrated in Fig 1 (Simcyp® Rat Simulator). For model development, the physiological/ system-specific parameters were inferred from the existing rodent species within the animal simulator while, the key drug- specific parameters used are summarized in Table 1. Briefly, all the physiochemical and binding to blood components (plasma proteins and erythrocytes) parameters of letrozole were derived from expansive literature review. The first-order rate of absorption (Ka) and bioavailability following oral administration and systemic clearance values in male and female rats were obtained from a previously reported pharmacokinetic study and the first-order absorption model best fit the letrozole data. Full-PBPK model was employed for drug distribution while the Rodgers and Rowland method or “Method 2”, as defined in Simcyp v17, predicted the volume of distribution (Vss). For the multi-compartment brain model, the passive permeability-surface area product on the BBB (PSB) was determined using the Crone- Renkin Equation [25, 26]: PSB=−Fpfln(1−Kin/Fpf) (3) where, Fpf is the cerebral blood or perfusion flow rate and Kin is the brain uptake clearance. We used 0.036 mL/sec/g as the Fpf for letrozole, based on a previous study that obtained an average cerebral perfusion flow rate value for lipophilic compounds [25]. […] The passive permeability-surface area product on the blood-cerebrospinal fluid barrier (BCSFB), PSC, was assumed as half of the PSB [19, 27] while the passive permeability-surface area product on the cerebrospinal fluid-brain barrier (CSFBB), PSE, was set at 80 mL/min, assuming a high permeability of this barrier. Brain ECF concentrations were predicted using the in vivo unbound fraction in the brain (fu, brain) for letrozole multiplied by the simulated total brain concentrations. The fu, brain for letrozole was experimentally determined in both healthy and tumor-bearing female Sprague-Dawley rats (N = 4/ group). Following single dose intraperitoneal administration of 4 mg/kg letrozole, both brain ECF (representative of unbound drug concentration in the brain) and whole brain tissue samples were collected at the same corresponding timepoint around the Tmax (~6 hrs) of letrozole in brain ECF and the fu, brain was calculated based on the ratio of observed brain ECF to the whole brain tissue homogenate concentrations of letrozole (0.58 ± 0.19; mean ± SD).
For evaluation of model predictions, the PBPK model developed was used to simulate extravascular administration of single/ multiple doses of letrozole (4 mg/kg) in rodents. To evaluate the predictive performance of the PBPK model, we compared the ratio of the predicted exposure change (Cmax and AUC ratios) against the observed data. A 1.25-fold under‐ or over‐prediction was considered good and within 1.5‐fold was deemed reasonable.

[3] = Steady state brain ECF pharmacokinetics by intracerebral microdialysis; conditions: for Kp uu at 264 h / Kp uu / Kp uu at 120 h: intraperitoneal; for Kp uu at 264 h: 11 days; for Kp uu: Kpuu, range over single dose and steady state (Cmax and AUC0-12); for Kp uu at 120 h: 5 days
Description: The average in vitro relative recovery of letrozole was determined at a flow rate of 2.0 μ1/min at 35°C.
Microdialysis probes were surgically implanted in jugular vein cannulated rats under anesthesia (ketamine/ xylazine 70/ 6 mg/kg i.p., Henry Schein, NY) one day prior to the experiment. Buprenorphine (Buprenex®, Henry Schein, NY) was administered for perioperative analgesia. The probe was inserted into the striatum with the following tip coordinates: A/P, 1.2 mm, L, 3.1 mm, and D/V −7.8 mm, according to the stereotaxic atlas of Paxinos and Watson [21]. The active portion of the membrane for the probes was 4.5 mm. Following implantation, the probes were connected to an infusion pump set to deliver modified Dulbecco’s phosphate buffered saline containing 1.2 mm CaCl2 and 5 mM glucose at a flow rate of 1 μl/min overnight.
To establish the steady state, letrozole was administered via the intraperitoneal route at a dose of 4mg/kg o.d for 11 days (female rats) and 5 days (male rats) based on the previously published data and our preliminary experiments. On the day of the experiment (last day of dosing), blood and dialysis samples were collected concurrently as described above at the following time points- pre-dose, 1, 2, 4, 6, 8 and12 h post administration. An additional 24 hr time point was included in the plasma sample collection and all the samples were stored at -80°C until analyzed.
Three sets of calibration plots were constructed for method validation.
Non-compartmental analysis (NCA) was performed using Phoenix WinNonlin® software (version 6.2.1, Pharsight, St. Louis, MO, USA) and the PK parameters determined included peak concentration (Cmax), time to reach peak concentration (Tmax), area under the concentration-time curve between time zero to the last observed concentration time point (AUC0- t) and the elimination half-life (t1/2). Actual sampling times were employed for calculations except for the pre-dose times, which were kept as zero. Since the blood sampling period spanned less than 4.5 half-lives in female rats, plasma AUC0-∞ values could not be determined reliably. Consequently, we were constrained to reporting AUC0-t values for letrozole in this study which was calculated using the linear trapezoidal method. For consistency, only AUC0-t values were reported for male rats as well. Cmax and Tmax values were obtained directly from the concentration-time data. […] Brain ECF concentrations were time-averaged over the collection interval and were corrected for the observed relative recovery. The brain-to-plasma unbound partition coefficients (Kpuu) were calculated as a ratio of the Cmax or AUC0-12 of letrozole levels in the brain ECF to corresponding plasma Cmax and AUC values corrected for plasma protein binding.

[4] = Passive permeability-surface area products by Crone-Renkin equation
Description: Simcyp Animal Simulator V17 (Certara Inc.) was employed for developing a bottom-up whole body PBPK model incorporating the specified multi-compartment brain model. Based on its anatomy and physiology, the whole brain is described by three compartments, viz. brain blood, brain mass and cerebrospinal fluid (CSF) as illustrated in Fig 1 (Simcyp® Rat Simulator). For model development, the physiological/ system-specific parameters were inferred from the existing rodent species within the animal simulator while, the key drug- specific parameters used are summarized in Table 1. Briefly, all the physiochemical and binding to blood components (plasma proteins and erythrocytes) parameters of letrozole were derived from expansive literature review. […] Full-PBPK model was employed for drug distribution while the Rodgers and Rowland method or “Method 2”, as defined in Simcyp v17, predicted the volume of distribution (Vss). For the multi-compartment brain model, the passive permeability-surface area product on the BBB (PSB) was determined using the Crone- Renkin Equation [25, 26]: PSB=−Fpfln(1−Kin/Fpf) (3) where, Fpf is the cerebral blood or perfusion flow rate and Kin is the brain uptake clearance. […] The passive permeability-surface area product on the blood-cerebrospinal fluid barrier (BCSFB), PSC, was assumed as half of the PSB [19, 27] while the passive permeability-surface area product on the cerebrospinal fluid-brain barrier (CSFBB), PSE, was set at 80 mL/min, assuming a high permeability of this barrier. Brain ECF concentrations were predicted using the in vivo unbound fraction in the brain (fu, brain) for letrozole multiplied by the simulated total brain concentrations. The fu, brain for letrozole was experimentally determined in both healthy and tumor-bearing female Sprague-Dawley rats (N = 4/ group).

[5] = design: method as in PMID 23712697; conditions: in situ mouse brain perfusion; cited from earlier work
[6] = design: method as in PMID 23748921; conditions: cited from earlier work
[7] = females, steady state, 4 mg/kg for 11 days
[8] = males, steady state, 4 mg/kg for 5 days

N#Cc1ccc(C(c2ccc(C#N)cc2)n2cncn2)cc1 [letrozole]
Blood-to-plasma partition ratio ([1]; PBPK input, ref CDER NDA 20–726): 0.8 | plasma protein binding [1]: ≈ 60% | AUC 0–12, brain ECF, predicted/observed ratio ([2]; females, single dose 4 mg/kg): 0.81 | AUC 0–72, plasma, predicted/observed ratio ([2]; females, single dose 4 mg/kg): 0.95 | Cmax, brain ECF, predicted/observed ratio ([2]; females, single dose 4 mg/kg): 0.71 | Cmax, plasma, predicted/observed ratio ([2]; females, single dose 4 mg/kg): 0.90 | Half-life t1/2, plasma, predicted/observed ratio ([2]; females, single dose 4 mg/kg): 1.29 | AUC 0–12, brain ECF, predicted/observed ratio [2, 7]: 0.78 | AUC 0–24, plasma, predicted/observed ratio [2, 7]: 0.77 | Cmax, brain ECF, predicted/observed ratio [2, 7]: 0.66 | Cmax, plasma, predicted/observed ratio [2, 7]: 0.76 | AUC 0–12, brain ECF, predicted/observed ratio ([2]; males, single dose 4 mg/kg): 1.29 | AUC 0–72, plasma, predicted/observed ratio ([2]; males, single dose 4 mg/kg): 0.85 | Cmax, brain ECF, predicted/observed ratio ([2]; males, single dose 4 mg/kg): 1.19 | Cmax, plasma, predicted/observed ratio ([2]; males, single dose 4 mg/kg): 0.75 | Half-life t1/2, plasma, predicted/observed ratio ([2]; males, single dose 4 mg/kg): 1.45 | AUC 0–12, brain ECF, predicted/observed ratio [2, 8]: 1.07 | AUC 0–24, plasma, predicted/observed ratio [2, 8]: 0.87 | Cmax, brain ECF, predicted/observed ratio [2, 8]: 0.96 | Cmax, plasma, predicted/observed ratio [2, 8]: 0.80 | accumulation at steady state (brain ECF Cmax and AUC0-12) ([3]; female rats): 3.5 to 4.0 fold | predicted steady state average concentration, brain ECF ([3]; female rats): ~1,000 ng/ml | Rac brain (observed accumulation ratio, AUC0-12) ([3]; female rats, Day 11 / Day 1): 4.2 | Rac brain (observed accumulation ratio, Cmax) ([3]; female rats, Day 11 / Day 1): 3.5 | Kp uu at 264 h ([3]; female, Sprague-Dawley, rat, brain ECF / unbound plasma, 4 mg/kg, Kpuu (AUC0-12 brain ECF / plasma unbound), female rats, steady state): 1.3 | Kp uu at 264 h ([3]; female, Sprague-Dawley, rat, brain ECF / unbound plasma, 4 mg/kg, Kpuu (Cmax brain ECF / plasma unbound), female rats, steady state): 1.2 | Kp uu ([3]; female, Sprague-Dawley, rat, brain ECF / unbound plasma, 4 mg/kg, female rats): 1.2 to 1.4 | accumulation at steady state (brain ECF Cmax and AUC0-12) ([3]; male rats): 2.0 fold | predicted steady state average concentration, brain ECF ([3]; male rats): ~210 ng/mL | Rac brain (observed accumulation ratio, AUC0-12) ([3]; male rats, Day 5 / Day 1): 2.0 | Rac brain (observed accumulation ratio, Cmax) ([3]; male rats, Day 5 / Day 1): 1.9 | Cmax, brain ECF ([3]; male rats, steady state, 4 mg/kg i.p. daily for 5 days, 4 mg/kg): 490 ± 240 ng/ml and 490 (240) ng/ml and 490 ng/ml | Kp uu at 120 h ([3]; male, Sprague-Dawley, rat, brain ECF (striatal microdialysate) / unbound plasma, 4 mg/kg, Kpuu (AUC0-12 brain ECF / plasma unbound), male rats, steady state): 0.9 | Tmax ([3]; male, Sprague-Dawley, rat, brain ECF (striatal microdialysate), ip, 4 mg/kg): 3.3 h | AUC(0-t) ([3]; male, Sprague-Dawley, rat, brain ECF (striatal microdialysate), ip, 4 mg/kg, AUC 0–12, brain ECF, male rats, steady state, 4 mg/kg i.p. daily for 5 days): 4820 ng·h/mL | AUC(0-t) ([3]; male, Sprague-Dawley, rat, brain ECF (striatal microdialysate), ip, 4 mg/kg, brain ECF AUC 0–12, male rats, steady state, 4 mg/kg i.p. daily for 5 days): 4800 ng·h/mL | Kp uu at 120 h ([3]; male, Sprague-Dawley, rat, brain ECF / unbound plasma, 4 mg/kg, Kpuu (Cmax brain ECF / plasma unbound), male rats, steady state): 0.9 | Kp uu ([3]; male, Sprague-Dawley, rat, brain ECF / unbound plasma, 4 mg/kg, male rats): 0.6 to 0.9 | brain ECF exposure (Cmax, AUC0-12), higher in female rats ([3]; steady state): 4.7 to 5 fold | PSC (passive permeability-surface area product on the BCSFB) ([4]; Assumed to be half of PSB): 0.42 mL/min | PSB (passive permeability-surface area product on the BBB) ([4]; Determined using Eq (3), assuming 1800 mg brain weight): 0.84^b mL/min | PSB ([4]; Eq (3)): bBased on PSB = 0.469 mL/min/g brain weight, assuming 1800 mg brain weight. | Kin (brain uptake clearance) [5]: 0.422 ± 0.068 mL/min/g brain | brain-to-plasma partition coefficients ([6]; brain and brain tumor tissue, female Sprague-Dawley rats): 0.5–1.0 | intra-tumoral levels relative to the contralateral tumor-free region [6]: 1.5 to 2 fold
